In US7368578B2, “Five-membered heterocyclic compounds” (Takeda Pharmaceutical Company Limited, priority 2002, dated 2008) one finds melting point data, which are given here for 13 compounds.

Consider `CCOC(=O)Cc1ccc(-c2nc(COc3ccc(COc4nn(-c5ccccc5)cc4/C=C/c4coc(C(C)C)n4)cc3OC)c(C)o2)cc1` [Example 367, ethyl {4-[4-({4-[({4-[(E)-2-(2-isopropyl-1,3-oxazol-4-yl)ethenyl]-1-phenyl-1H-pyrazol-3-yl}oxy)methyl]-2-methoxyphenoxy}methyl)-5-methyl-1,3-oxazol-2-yl]phenyl}acetate], for which the melting point (commonly the temperature, or range, at which the solid turns liquid) fell in the range of 106 to 108 °C.

`CCOC(=O)Cc1ccc(-c2nc(COc3ccc(COc4nn(-c5ccccc5)cc4/C=C/c4coc(C(C)(C)C)n4)cc3OC)c(C)o2)cc1` [Example 368, ethyl {4-[4-({4-[({4-[(E)-2-(2-tert-butyl-1,3-oxazol-4-yl)ethenyl]-1-phenyl-1H-pyrazol-3-yl}oxy)methyl]-2-methoxyphenoxy}methyl)-5-methyl-1,3-oxazol-2-yl]phenyl}acetate] yielded a melting point of 126 to 129 °C. With `CCc1nc(/C=C/c2cn(-c3ccccc3)nc2OCc2ccc(OCc3nc(-c4cccc(C#N)c4)oc3C)c(OC)c2)cs1` [Example 372, 3-[4-({4-[({4-[(E)-2-(2-ethyl-1,3-thiazol-4-yl)ethenyl]-1-phenyl-1H-pyrazol-3-yl}oxy)methyl]-2-methoxyphenoxy}methyl)-5-methyl-1,3-oxazol-2-yl]benzonitrile], the melting point fell in the range of 138 to 140 °C.

Turning to `CCc1nc(/C=C/c2cn(-c3ccccc3)nc2OCc2ccc(OCc3nc(-c4cccc(-c5noc(=O)[nH]5)c4)oc3C)c(OC)c2)cs1` [Example 375, 3-{3-[4-({4-[({4-[(E)-2-(2-ethyl-1,3-thiazol-4-yl)ethenyl]-1-phenyl-1H-pyrazol-3-yl}oxy)methyl]-2-methoxyphenoxy}methyl)-5-methyl-1,3-oxazol-2-yl]phenyl}-1,2,4-oxadiazol-5(4H)-one], the melting point was 139 to 140 °C. The same measure for `CCc1nc(/C=C/c2cn(-c3ccccc3)nc2OCc2ccc(OCc3nc(-c4cccc(C(=O)NS(C)(=O)=O)c4)oc3C)c(OC)c2)cs1` [Example 376, 3-[4-({4-[({4-[(E)-2-(2-ethyl-1,3-thiazol-4-yl)ethenyl]-1-phenyl-1H-pyrazol-3-yl}oxy)methyl]-2-methoxyphenoxy}methyl)-5-methyl-1,3-oxazol-2-yl]-N-(methylsulfonyl)benzamide]: 211 to 213 °C; for `CCOC(=O)Cc1ccc(-c2nc(COc3ccc(COc4nn(-c5ccccc5)cc4/C=C/c4nc(CC)sc4C)cc3OC)c(C)o2)cc1` [Example 378, ethyl {4-[4-({4-[({4-[(E)-2-(2-ethyl-5-methyl-1,3-thiazol-4-yl)ethenyl]-1-phenyl-1H-pyrazol-3-yl}oxy)methyl]-2-methoxyphenoxy}methyl)-5-methyl-1,3-oxazol-2-yl]phenyl}acetate]: 127 to 128 °C; for `CCOC(=O)Cc1ccc(-c2nc(COc3ccc(COc4nn(-c5ccccc5)cc4/C=C/c4nc(N5CCN(C(=O)OC(C)(C)C)CC5)sc4C)cc3OC)c(C)o2)cc1` [Example 380, tert-butyl 4-{4-[(E)-2-(3-{[4-({2-[4-(2-ethoxy-2-oxoethyl)phenyl]-5-methyl-1,3-oxazol-4-yl}methoxy)-3-methoxybenzyl]oxy}-1-phenyl-1H-pyrazol-4-yl)ethenyl]-5-methyl-1,3-thiazol-2-yl}piperazine-1-carboxylate]: 112 to 114 °C. As for `COc1cc(COc2nn(-c3ccccc3)cc2/C=C/c2nc(N3CCN(C(=O)OC(C)(C)C)CC3)sc2C)ccc1OCc1nc(-c2ccc(CC(=O)O)cc2)oc1C` [Example 381, [4-(4-{[4-({[4-((E)-2-{2-[4-(tert-butoxycarbonyl)piperazin-1-yl]-5-methyl-1,3-thiazol-4-yl}ethenyl)-1-phenyl-1H-pyrazol-3-yl]oxy}methyl)-2-methoxyphenoxy]methyl}-5-methyl-1,3-oxazol-2-yl)phenyl]acetic acid], the figure is 119 to 120 °C; as for `CCOC(=O)Cc1ccc(-c2nc(COc3ccc(COc4nn(-c5ccccc5)cc4/C=C/c4nc(N5CCCCC5)sc4C)cc3OC)c(C)o2)cc1` [Example 382, ethyl [4-{4-[(2-methoxy-4-{[(4-{(E)-2-[5-methyl-2-(piperidin-1-yl)-1,3-thiazol-4-yl]ethenyl}-1-phenyl-1H-pyrazol-3-yl)oxy]methyl}phenoxy)methyl]-5-methyl-1,3-oxazol-2-yl}phenyl]acetate], 131 to 132 °C. Consider `COc1cc(COc2nn(-c3ccccc3)cc2/C=C/c2nc(N3CCCCC3)sc2C)ccc1OCc1nc(-c2ccc(CC(=O)O)cc2)oc1C` [Example 383, [4-{4-[(2-methoxy-4-{[(4-{(E)-2-[5-methyl-2-(piperidin-1-yl)-1,3-thiazol-4-yl]ethenyl}-1-phenyl-1H-pyrazol-3-yl)oxy]methyl}phenoxy)methyl]-5-methyl-1,3-oxazol-2-yl}phenyl]acetic acid], for which the melting point lay in the range of 146 to 148 °C. Turning to `COc1cc(COc2nn(-c3ccccc3)cc2/C=C/c2nc(N3CCOCC3)sc2C)ccc1OCc1nc(-c2ccc(CC(=O)O)cc2)oc1C` [Example 385, [4-(4-{[2-methoxy-4-({[4-{(E)-2-[5-methyl-2-(morpholin-4-yl)-1,3-thiazol-4-yl]ethenyl}-1-phenyl-1H-pyrazol-3-yl]oxy}methyl)phenoxy]methyl)-5-methyl-1,3-oxazol-2-yl}phenyl]acetic acid], the melting point is 171 to 173 °C.

Compound `CCc1nc(/C=C/c2cn(-c3ccccc3)nc2OCc2ccc(OCc3nc(-c4cccc(NS(C)(=O)=O)c4)oc3C)c(OC)c2)cs1` [Example 388, N-{3-[4-({4-[({4-[(E)-2-(2-ethyl-1,3-thiazol-4-yl)ethenyl]-1-phenyl-1H-pyrazol-3-yl}oxy)methyl]-2-methoxyphenoxy}methyl)-5-methyl-1,3-oxazol-2-yl]phenyl}methanesulfonamide] gave a melting point of 113 to 115 °C. In turn, `CCc1nc(/C=C/c2cn(-c3ccccc3)nc2OCc2cc(OCc3nc(-c4ccc(CC(=O)O)cc4)oc3C)no2)cs1` [Example 390, (4-{4-[({5-[({4-[(E)-2-(2-ethyl-1,3-thiazol-4-yl)ethenyl]-1-phenyl-1H-pyrazol-3-yl}oxy)methyl]isoxazol-3-yl}oxy)methyl]-5-methyl-1,3-oxazol-2-yl}phenyl)acetic acid] gave a melting point of 156 to 158 °C.
